Experimental findings from patent US7803816B2, “MCH receptor antagonists” (Hoffmann-La Roche Inc., priority 2005, dated 2010) are described below.

Where a name gives a salt, the structure may show the parent alone.

The assay deals with T1, recombinant human MCHR1-receptors (Homo sapiens, UniProt Q99705).
T1 construct: expressed in transfected cells
T1 sequence (Q99705 whole entry): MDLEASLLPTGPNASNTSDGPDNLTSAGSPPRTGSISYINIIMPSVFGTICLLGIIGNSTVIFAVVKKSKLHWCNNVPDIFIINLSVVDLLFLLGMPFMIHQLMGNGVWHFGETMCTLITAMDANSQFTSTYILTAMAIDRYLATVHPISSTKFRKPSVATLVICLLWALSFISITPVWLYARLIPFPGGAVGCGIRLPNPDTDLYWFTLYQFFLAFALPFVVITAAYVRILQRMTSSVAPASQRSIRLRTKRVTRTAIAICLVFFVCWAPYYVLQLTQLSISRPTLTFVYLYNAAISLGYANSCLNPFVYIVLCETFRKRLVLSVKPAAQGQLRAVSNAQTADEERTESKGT
As to the kind of experiment: MCHR filter binding assay (competition binding). The settings on record: membranes from CHO-K1 cells expressing human MCHR1; 0.2 nM [Phe13,[125I]Tyr19]-MCH; read-out: IC50 (nM), in vitro activity (binding assay). The method, then: MCHR Filter Binding Assay
Competition binding assays were performed using membranes from CHO-K1 cells stably expressing the recombinant human MCHR1-receptors. Binding reactions (90 μl, final volume) were carried out at rt by incubating 2.8 μg membranes with 0.2 nM [Phe^13,[^125I]Tyr^19]-MCH (PerkinElmer) in the absence or presence of various concentrations of competing ligands in binding buffer (50 mM HEPES, 2.5 mM CaCl2, 0.05 mM BSA, 1 mM phenanthroline, 0.03 mM Triton X-100). [Phe^13,[^125I]Tyr^19]-MCH was added 15 min following the addition of unlabeled competing ligands, and the reactions incubated for a 1 h period. The reactions were terminated by rapid filtration over pretreated 96-well filter plates (Millipore; MultiScreen 0.65 μm GFB filter plates). Filter Plates were treated for 12 h at 4° C. with a 0.5% polyvinylpyrrolidone solution containing 1% BSA and 0.1% Tween 20, and then washed with an ice-cold solution of 10 mM Tris, pH 7.5 (5×200 μl). The plates were drained following a 5 min incubation with binding buffer (200 μl) at rt. Following termination of the binding reactions, the filters were washed with ice-cold binding buffer (4×200 μl). The filter plates were air dried for 30 min, scintillation cocktail (60 μl) added to each well and radioactivity bound to the plates was determined using a Micro-beta plate reader (Wallace/PerkinElmer).
In general, IC50 refers to the concentration that inhibits the measured activity by half. Regarding `Cc1ccc2c(c1)nc(C(C)(C)O)n2C1CCN(CC2Cc3ccncc3C2)CC1` (stereo not shown) [Example 12, 2-{1-[1-(6,7-Dihydro-5H-[2]pyrindin-6-ylmethyl)-piperidin-4-yl]-5-methyl-1H-benzoimidazol-2-yl}-propan-2-ol], the IC50 fell in the range of 20 to 200 nM.

In the case of `CO[C@@H]1CN(C[C@H]2Cc3ccc(Br)cc3C2)CC[C@H]1n1c(C(C)C)nc2cc(C)ccc21` [Example 18, 1-[(3R,4R)-1-((S)-5-Bromo-indan-2-ylmethyl)-3-methoxy-piperidin-4-yl]-2-isopropyl-5-methyl-1H-benzoimidazole], the IC50 was 20 to 200 nM. Under `CO[C@@H]1CN(CC2Cc3ccc(C(C)C)cc3C2)CC[C@H]1n1c(C)nc2cc(C)ccc21` (stereo partly drawn) [Example 104, 1-[(3R,4R)-1-(5-Isopropyl-indan-2-ylmethyl)-3-methoxy-piperidin-4-yl]-2,5-dimethyl-1H-benzoimidazole] stands 200 to 5000 nM; under `CO[C@H]1CN(CC2Cc3ccc(Cl)cc3C2)CC[C@@H]1n1c(C)nc2cc(C)ccc21` (stereo partly drawn) [Example 19, 1-[(3S,4S)-1-(5-Chloro-indan-2-ylmethyl)-3-methoxy-piperidin-4-yl]-2,5-dimethyl-1H-benzoimidazole; dihydrochloride], 20 to 200 nM. Under `COC(=O)Nc1ccc2c(c1)C[C@H](CN1CC[C@@H](n3c(C(C)C)nc4cc(C)ccc43)[C@H](OC)C1)C2` [Example 77, {(R)-2-[(3R,4R)-4-(2-Isopropyl-5-methyl-benzoimidazol-1-yl)-3-methoxy-piperidin-1-ylmethyl]-indan-5-yl}-carbamic acid methyl ester] stands 20 to 200 nM; under `CCc1nc2cc(C)ccc2n1C1CCN(CC2Cc3ccc(NC(=O)C(C)C)cc3C2)CC1` (stereo not shown) [Example 70, N-{2-[4-(2-Ethyl-5-methyl-benzoimidazol-1-yl)-piperidin-1-ylmethyl]-indan-5-yl}-isobutyramide], less than 20 nM; under `CO[C@@H]1CN(CC2Cc3ccccc3C2)CC[C@H]1n1c(C)nc2cc(C)ccc21` [Example 50, 1-((3R,4R)-1-Indan-2-ylmethyl-3-methoxy-piperidin-4-yl)-2,5-dimethyl-1H-benzoimidazole], 20 to 200 nM. To `CCCC(=O)Nc1ccc2c(c1)C[C@H](CN1CC[C@@H](n3c(C4CC4)nc4cc(C)ccc43)[C@H](OC)C1)C2` [Example 79, N-{(R)-2-[(3R,4R)-4-(2-Cyclopropyl-5-methyl-benzoimidazol-1-yl)-3-methoxy-piperidin-1-ylmethyl]-indan-5-yl}-butyramide] belongs 20 to 200 nM; to `Cc1ccc2c(c1)nc(C)n2C1CCN(CC2=Cc3cc(NC(=O)C(C)C)ccc3C2)CC1` [Example 54, N-{2-[4-(2,5-Dimethyl-benzoimidazol-1-yl)-piperidin-1-ylmethyl]-1H-inden-5-yl}-isobutyramide], 200 to 5000 nM.

In the case of `CO[C@H]1CN(C[C@@H]2Cc3ccc(Br)cc3C2)CC[C@@H]1n1c(C(C)(C)O)nc2cc(C)ccc21` [Example 116, 2-{1-[(3S,4S)-1-((R)-5-Bromo-indan-2-ylmethyl)-3-methoxy-piperidin-4-yl]-5-methyl-1H-benzoimidazol-2-yl}-propan-2-ol], the IC50 fell in the range of 20 to 200 nM. Under `CO[C@H]1CN(C[C@@H]2Cc3ccc(NC(=O)C(C)C)cc3C2)CC[C@@H]1n1c(C)nc2cc(C)ccc21` [Example 34, N-{(R)-2-[(3S,4S)-4-(2,5-Dimethyl-benzoimidazol-1-yl)-3-methoxy-piperidin-1-ylmethyl]-indan-5-yl}-isobutyramide] stands less than 20 nM; under `CO[C@H]1CN(C[C@@H]2Cc3ccc(NC(=O)C(C)C)cc3C2)CC[C@@H]1n1c(C2CC2)nc2cc(C)ccc21` [Example 65, N-{(R)-2-[(3S,4S)-4-(2-Cyclopropyl-5-methyl-benzoimidazol-1-yl)-3-methoxy-piperidin-1-ylmethyl]-indan-5-yl}-isobutyramide], less than 20 nM. For `Cc1ccc2c(c1)nc(C)n2[C@@H]1CCN(C[C@H]2Cc3ccc(NC(=O)C4CC4)cc3C2)C[C@H]1O` [Example 88, Cyclopropanecarboxylic acid {(S)-2-[(3R,4R)-4-(2,5-dimethyl-benzoimidazol-1-yl)-3-hydroxy-piperidin-1-ylmethyl]-indan-5-yl}-amide], the IC50 fell in the range of 20 to 200 nM.

Consider `CO[C@@H]1CN(C[C@@H]2Cc3ccc(Br)cc3C2)CC[C@H]1n1c(C(C)(C)O)nc2cc(C)ccc21` [Example 115, 2-{1-[(3R,4R)-1-((R)-5-Bromo-indan-2-ylmethyl)-3-methoxy-piperidin-4-yl]-5-methyl-1H-benzoimidazol-2-yl}-propan-2-ol], for which the IC50 lay within 20 to 200 nM. To `Cc1ccc2c(c1)nc(C)n2C1CCN(CC2Cc3ccc(NC(=O)C(C)C)cc3C2)CC1` (stereo not shown) [Example 46, N-{2-[4-(2,5-Dimethyl-benzoimidazol-1-yl)-piperidin-1-ylmethyl]-indan-5-yl}-isobutyramide] belongs 20 to 200 nM; to `CO[C@@H]1CN(C[C@@H]2Cc3ccc(Cl)cc3C2)CC[C@H]1n1c(C(C)(C)O)nc2cc(C)ccc21` [Example 113, 2-{1-[(3R,4R)-1-((R)-5-Chloro-indan-2-ylmethyl)-3-methoxy-piperidin-4-yl]-5-methyl-1H-benzoimidazol-2-yl}-propan-2-ol], less than 20 nM. As for `CO[C@H]1CN(CC2Cc3cc(Cl)c(Cl)cc3C2)CC[C@@H]1n1c(C)nc2cc(C)ccc21` [Example 94, 1-[(3S,4S)-1-(5,6-Dichloro-indan-2-ylmethyl)-3-methoxy-piperidin-4-yl]-2,5-dimethyl-1H-benzoimidazole; dihydrochloride], the IC50 is 200 to 5000 nM. Under `Cc1ccc2c(c1)nc(C)n2[C@@H]1CCN(C[C@@H]2Cc3ccc(NC(=O)C(C)C)cc3C2)C[C@H]1CO` (racemic) [Example 3, N-{(R)-2-[4-(2,5-Dimethyl-benzoimidazol-1-yl)-3-hydroxymethyl-piperidin-1-ylmethyl]-indan-5-yl}-isobutyramide] stands less than 20 nM. For the compound “{(R)-2-[4-(2-tert-Butyl-5-methyl-benzoimidazol-1-yl)-piperidin-1-ylmethyl]-indan-5-yl}-methyl-amine [Example 56]”, the IC50 was in the range of 200 to 5000 nM.

For the compound `Cc1ccc2c(c1)nc(Cl)n2C1CCN(C[C@@H]2Cc3ccc(NC(=O)C4CC4)cc3C2)CC1` [Example 30, Cyclopropanecarboxylic acid {(R)-2-[4-(2-chloro-5-methyl-benzoimidazol-1-yl)-piperidin-1-ylmethyl]-indan-5-yl}-amide; dihydrochloride], the IC50 was in the range of 200 to 5000 nM.

For `COC(=O)Nc1ccc2c(c1)C[C@H](CN1CC[C@@H](n3c(C4CC4)nc4cc(C)ccc43)[C@H](OC)C1)C2` [Example 75, {(R)-2-[(3R,4R)-4-(2-Cyclopropyl-5-methyl-benzoimidazol-1-yl)-3-methoxy-piperidin-1-ylmethyl]-indan-5-yl}-carbamic acid methyl ester], the IC50 lay in the range of 20 to 200 nM. Regarding `CC(=O)c1nc2cc(C)ccc2n1C1CCN(CC2Cc3ccccc3C2)CC1` [Example 82, 1-[1-(1-Indan-2-ylmethyl-piperidin-4-yl)-5-methyl-1H-benzoimidazol-2-yl]-ethanone], the IC50 fell in the range of 200 to 5000 nM.

As to `CO[C@H]1CN(C[C@H]2Cc3ccc(Br)cc3C2)CC[C@@H]1n1c(C)nc2cc(C)ccc21` [Example 91, 1-[(3S,4S)-1-((S)-5-Bromo-indan-2-ylmethyl)-3-methoxy-piperidin-4-yl]-2,5-dimethyl-1H-benzoimidazole; dihydrochloride], the IC50 was in the range of 20 to 200 nM. To `CCC(=O)Nc1ccc2c(c1)C[C@H](CN1CCC(n3c(C(C)C)nc4cc(C)ccc43)C(OC)C1)C2` (stereo partly drawn) [Example 59, N-{(R)-2-[4-(2-Isopropyl-5-methyl-benzoimidazol-1-yl)-3-methoxy-piperidin-1-ylmethyl]-indan-5-yl}-propionamide] belongs less than 20 nM; to `CSC1CN(C[C@@H]2Cc3ccc(NC(=O)C(C)C)cc3C2)CCC1n1c(C)nc2cc(C)ccc21` (stereo partly drawn) [Example 22, N-{(R)-2-[4-(2,5-Dimethyl-benzoimidazol-1-yl)-3-methylsulfanyl-piperidin-1-ylmethyl]-indan-5-yl}-isobutyramide; dihydrochloride], 20 to 200 nM; to `CO[C@@H]1CN(C[C@@H]2Cc3ccc(NC(=O)C(C)C)cc3C2)CC[C@H]1n1c(C2CC2)nc2cc(C)ccc21` [Example 73, N-{(R)-2-[(3R,4R)-4-(2-Cyclopropyl-5-methyl-benzoimidazol-1-yl)-3-methoxy-piperidin-1-ylmethyl]-indan-5-yl}-isobutyramide], 20 to 200 nM. Under `Cc1ccc2c(c1)nc(C(C)(C)C)n2C1CCN(C[C@@H]2Cc3ccc(NC(=O)C(C)C)cc3C2)CC1` [Example 41, N-{(R)-2-[4-(2-tert-Butyl-5-methyl-benzoimidazol-1-yl)-piperidin-1-ylmethyl]-indan-5-yl}-isobutyramide] stands less than 20 nM; under `CO[C@@H]1CN(CC2Cc3ccc(C)cc3C2)CC[C@H]1n1c(C(C)(C)O)nc2cc(C)ccc21` (stereo partly drawn) [Example 117, 2-{1-[(3R,4R)-3-Methoxy-1-(5-methyl-indan-2-ylmethyl)-piperidin-4-yl]-5-methyl-1H-benzoimidazol-2-yl}-propan-2-ol], 20 to 200 nM.
